Data reported in ChEMBL document CHEMBL1147743, “The first potent inhibitors for human glutaminyl cyclase: synthesis and structure-activity relationship” (J Med Chem, 2006).

Molecular target: Glutaminyl-peptide cyclotransferase (Homo sapiens, UniProt Q16769)
Test: Inhibitory activity against human glutaminyl cyclase

Sequence of Glutaminyl-peptide cyclotransferase (Q16769 whole entry): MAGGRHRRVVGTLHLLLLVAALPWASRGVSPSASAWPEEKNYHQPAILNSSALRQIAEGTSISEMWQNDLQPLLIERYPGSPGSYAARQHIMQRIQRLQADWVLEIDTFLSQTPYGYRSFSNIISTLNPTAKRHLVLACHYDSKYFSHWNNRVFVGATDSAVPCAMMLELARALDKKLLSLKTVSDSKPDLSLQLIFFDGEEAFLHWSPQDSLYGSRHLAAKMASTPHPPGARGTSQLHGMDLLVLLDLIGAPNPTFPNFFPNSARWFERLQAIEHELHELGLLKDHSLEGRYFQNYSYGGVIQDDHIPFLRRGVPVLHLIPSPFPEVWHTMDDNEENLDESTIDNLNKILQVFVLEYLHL

Compound | Ki
S=C(NCCCn1ccnc1)NC1CCCCC1 | 4700 nM
O=C1CNC(=S)N1CCCn1ccnc1 | 700 nM
